Legend:
Format in all cases: cell-based
[1] = system: bovine articular cartilage explant; assay: Collagenase-cleaved type II collagen (COL2-3/4C) in bovine articular cartilage explant culture; conditions: 0.1 and 1 μM from day 0; day 12; one way ANOVA
Method: The cartilages were prepared as previously described (Dahlberg, L. et al. (2000) supra. In brief, the cartilage samples were washed three times with basal culture medium containing Dulbecco's modified Eagle's medium (DMEM; Gibco BRL, Life Technologies, Grand Island, N.Y.) with 20 mM HEAPS buffer (pH 7.4) (Gibco BRL), 45 mM NaHCO3, 100 units/ml penicillin, 100 μg/ml streptomycin and 150 μg/ml gentamycin sulphate (Medium A). Full-depth cartilage slices from a single area, around 20 mm×20 mm were cut vertical to the articular surface and then into cubes of approximately 2 mm×2 mm (5-7 cubes were randomly obtained and wet weights about 50-70 mg/well determined).
The cartilage was assigned to 48 well plate (ca 40 mg/well) and kept in Medium A supplemented with 50 μg/ml ascorbic acid, 0.1 mg/bovine serum albumin, 50 μg/ml insulin, 5.0 μg/ml and 5.0 μg/ml sodium DMEM alone at 37° C. in 95% air/5% CO2. The cartilage was precultured for 2 days and medium was changed at day 0. Thereafter medium (as described in pellet cultures) was replaced every four days. Various CNBr fragments and/or synthetic peptides were freshly added from day 0 at each medium change. Thereafter, cartilage explants and conditioned media were harvested and stored at −20° C.
The cell pellets and cartilage explant cultured for various times were digested for the extraction of collagenase-generated neoepitope COL2-3/4Cshort (Billinghurst, R. C. et al., (1997) supra) and denatured type II collagen epitope COL2-3/4m and total type II collagen (Hollander, A. P. et al. (1994a) supra), as previously described: Briefly, the harvested pellets were incubated overnight with 1.0 mg/ml α-chymotrypsin at 37° C. to cleave and solubilize denatured collagen leaving the above neoepitope and epitope intact. After inhibition of α-chymotrypsin activity with N-tosyl-L-phenelalanine-chloromethyl ketone (Sigma), the samples were centrifuged and the supernatants were removed and boiled for 10 min. The COL2-3/4Cshort epitope (hereafter referred to as COL2-3/4Cshort) generated by cleavage of type II collagen by collagenase (Billinghurst, R. C. et al. (1997) supra) and intrachain epitope (COL2-3/4m) exposed in denatured type II collagen (Hollander, A. P. et al. (1994a) supra) were measured in α-chymotrypsin extracts by immunoassay. The COL2-3/4Cshort epitope is detected in an ELISA assay using a rabbit antibody to the carboxyterminal cleavage neoepitope on the TCA piece generated by primary collagenase cleavage of type II collagen. The release of the COL2-3/4C epitope into media was also measured by immunoassay. Total contents in tissue/cells and media was recorded for COL2-3/^4Cshort epitope. The COL2-3/4m epitope was recorded in cells and tissue where it was concentrated. The remaining residues of pellets and explants were digested overnight with 1.0 mg/ml proteinase K at 56° C. to extract the remaining intact type II collagen and then boiled for 10 min to denature the enzyme. Total type II collagen content in the pellets and explant was determined from the collective amount of COL2-3/4m in both the α-chymotrypsin and proteinase K digests.

[2] = system: bovine articular cartilage explant; assay: Proteoglycan (GAG) content and release in bovine explant culture; conditions: 0.1 and 1 μM from day 0
Method: The cartilages were prepared as previously described (Dahlberg, L. et al. (2000) supra. In brief, the cartilage samples were washed three times with basal culture medium containing Dulbecco's modified Eagle's medium (DMEM; Gibco BRL, Life Technologies, Grand Island, N.Y.) with 20 mM HEAPS buffer (pH 7.4) (Gibco BRL), 45 mM NaHCO3, 100 units/ml penicillin, 100 μg/ml streptomycin and 150 μg/ml gentamycin sulphate (Medium A). Full-depth cartilage slices from a single area, around 20 mm×20 mm were cut vertical to the articular surface and then into cubes of approximately 2 mm×2 mm (5-7 cubes were randomly obtained and wet weights about 50-70 mg/well determined). The cartilage was assigned to 48 well plate (ca 40 mg/well) and kept in Medium A supplemented with 50 μg/ml ascorbic acid, 0.1 mg/bovine serum albumin, 50 μg/ml insulin, 5.0 μg/ml and 5.0 μg/ml sodium DMEM alone at 37° C. in 95% air/5% CO2. The cartilage was precultured for 2 days and medium was changed at day 0. Thereafter medium (as described in pellet cultures) was replaced every four days. Various CNBr fragments and/or synthetic peptides were freshly added from day 0 at each medium change. Thereafter, cartilage explants and conditioned media were harvested and stored at −20° C. In order to show the specificity of the peptide fragments of one embodiment on degradation of type II collagen as compared with proteoglycan, primarily aggrecan, sulphated glycosaminoglycan (GAG) content was determined in both the α-chymotrypsin and proteinase K digests for total proteoglycan (predominantly aggrecan) content in cell pellets, cartilage explants and also in conditioned media. Measurement of release of proteoglycan into media was tested using dimethylene blue dye binding as previously described (Dahlberg, L. et al. (2000) supra).

[3] = system: adult bovine articular chondrocytes; assay: Collagenase-cleaved type II collagen (COL2-3/4C ELISA) in bovine chondrocyte pellet culture; conditions: preliminary studies; denatured 50° C. for 20 min; data not shown
Method: Adult bovine and human articular cartilage was obtained from metacarpophalangeal joints shortly (within 3 hours) after slaughter and from autopsy within 18 hr of death, respectively. Chondroctyes were released from freshly dissected articular cartilage specimens by sequential enzymatic digestion at 37° C. with trypsin and bacterial collagenase as previously described (Aimes, R. T., 1995). […]
The cell pellets and cartilage explant cultured for various times were digested for the extraction of collagenase-generated neoepitope COL2-3/4Cshort (Billinghurst, R. C. et al., (1997) supra) and denatured type II collagen epitope COL2-3/4m and total type II collagen (Hollander, A. P. et al. (1994a) supra), as previously described: Briefly, the harvested pellets were incubated overnight with 1.0 mg/ml α-chymotrypsin at 37° C. to cleave and solubilize denatured collagen leaving the above neoepitope and epitope intact. […] The COL2-3/4Cshort epitope (hereafter referred to as COL2-3/4Cshort) generated by cleavage of type II collagen by collagenase (Billinghurst, R. C. et al. (1997) supra) and intrachain epitope (COL2-3/4m) exposed in denatured type II collagen (Hollander, A. P. et al. (1994a) supra) were measured in α-chymotrypsin extracts by immunoassay. […] The release of the COL2-3/4C epitope into media was also measured by immunoassay. […]

- COL2-3/4C content in medium and cartilage [1]: no effect
- difference between pellet cultures treated with and without denatured type II collagen [3]: no significant difference
Substance: denatured type II collagen: denatured type II collagen purified from fetal bovine epiphyseal cartilage
- GAG-release into culture media [2]: no effect
- proteoglycan (GAG) contents [2]: no effect
